Measurements as given in US11807646B2, “4-hydroxypiperidine derivatives and their use as inhibitors of ubiquitin specific protease 19 (USP19)” (ALMAC DISCOVERY LIMITED, priority 2018, dated 2023).

molecular target: USP19 (Homo sapiens (Human), UniProt O94966); experiment: USP19 fluorescence polarization (FP) homogeneous assay with Ubiquitin-Lys-TAMRA substrate; format: biochemical; conditions: full-length USP19 2.5 nM, Ub substrate 500 nM, 30 min pre-incubation at rt; average of at least two duplicate experiments
Method: Unless otherwise stated, all other reagents were purchased from Sigma. Enzymatic reactions were conducted in black flat bottom polystyrene 384-well plates (Nunc) and 30 μL total volume. […] Inhibitors were stored as 10 mM DMSO stocks in an inert environment (low humidity, dark, low oxygen, room temperature) using the Storage Pod System and serial dilutions were prepared in buffer just prior to the assay (from 200 μM to 2 pM, 8-18 data point curve). Following incubation at rt for 30 min, the enzymatic reactions were initiated by dispensing the Ub substrate (500 nM, 10 μL). FP was measured every 15 min over a period of 90 min (within the linear range of the assay) using a Synergy 4 plate reader (BioTek) exciting at 530 nm and measuring the amount of parallel and perpendicular light at 575 nm. The FP signal was subsequently normalized to the no compound control.

Chain of USP19 (O94966 whole entry): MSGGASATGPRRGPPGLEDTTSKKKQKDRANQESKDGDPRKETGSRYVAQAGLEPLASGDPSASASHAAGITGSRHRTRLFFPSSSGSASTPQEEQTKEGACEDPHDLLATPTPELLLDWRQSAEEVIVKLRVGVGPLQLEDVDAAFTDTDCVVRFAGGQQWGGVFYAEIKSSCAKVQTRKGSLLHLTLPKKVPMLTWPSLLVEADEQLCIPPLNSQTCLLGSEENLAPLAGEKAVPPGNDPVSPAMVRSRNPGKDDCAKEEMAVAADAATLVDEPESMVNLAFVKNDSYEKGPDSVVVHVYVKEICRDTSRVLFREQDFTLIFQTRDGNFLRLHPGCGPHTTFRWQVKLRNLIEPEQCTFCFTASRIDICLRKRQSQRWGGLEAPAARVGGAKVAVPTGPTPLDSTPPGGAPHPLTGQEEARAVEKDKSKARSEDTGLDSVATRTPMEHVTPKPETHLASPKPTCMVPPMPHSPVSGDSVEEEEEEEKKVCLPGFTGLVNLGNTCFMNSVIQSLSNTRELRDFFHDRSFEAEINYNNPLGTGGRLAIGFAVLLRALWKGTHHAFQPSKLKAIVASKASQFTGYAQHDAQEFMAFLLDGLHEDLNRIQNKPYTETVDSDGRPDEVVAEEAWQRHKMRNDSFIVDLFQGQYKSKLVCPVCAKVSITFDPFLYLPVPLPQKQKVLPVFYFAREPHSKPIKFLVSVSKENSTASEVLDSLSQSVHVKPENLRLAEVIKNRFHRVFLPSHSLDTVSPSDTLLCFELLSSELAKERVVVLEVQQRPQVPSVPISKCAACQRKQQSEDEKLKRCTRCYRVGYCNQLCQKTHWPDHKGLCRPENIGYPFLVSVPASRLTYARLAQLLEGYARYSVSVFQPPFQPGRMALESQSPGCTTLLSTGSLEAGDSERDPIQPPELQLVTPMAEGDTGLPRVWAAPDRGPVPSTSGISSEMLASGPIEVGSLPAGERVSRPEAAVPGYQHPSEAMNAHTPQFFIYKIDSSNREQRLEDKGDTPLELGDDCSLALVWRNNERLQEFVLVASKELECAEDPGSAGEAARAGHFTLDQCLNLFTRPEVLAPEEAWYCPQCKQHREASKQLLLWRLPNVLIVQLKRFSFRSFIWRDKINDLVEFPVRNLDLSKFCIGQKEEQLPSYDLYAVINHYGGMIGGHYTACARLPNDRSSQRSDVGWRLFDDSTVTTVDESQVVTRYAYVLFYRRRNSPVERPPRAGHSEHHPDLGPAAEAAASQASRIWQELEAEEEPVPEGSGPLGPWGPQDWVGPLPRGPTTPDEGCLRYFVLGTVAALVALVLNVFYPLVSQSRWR

Row | Structure (SMILES) | IC50 [µM]
1 | C[C@H](CC(F)(F)F)C(=O)N1CCC(O)(Cn2ccc3ccc(F)cc3c2=O)C2(CCCC2)C1 (stereo partly drawn) [Example 135, 7-Fluoro-2-((10-hydroxy-7-((R)-4,4,4-trifluoro-2-methylbutanoyl)-7-azaspiro[4.5]decan-10-yl)methyl)isoquinolin-1(2H)-one] | 5 to 50
2 | C[C@H](CC1CCCCC1)C(=O)N1CC[C@](O)(Cn2cc(N=S(C)(C)=O)c(-c3ccccc3F)cc2=O)C(C)(C)C1 [Example 65, 1-(((R)-1-((R)-3-Cyclohexyl-2-methylpropanoyl)-4-hydroxy-3,3-dimethylpiperidin-4-yl)methyl)-5-((dimethyl(oxo)-λ^6-sulfaneylidene)amino)-4-(2-fluorophenyl)pyridin-2(1H)-one] | 50 to 250
3 | CC(CC(=O)N1CCC(O)(CN2CC(Cc3ccccc3)CC2=O)C(C)(C)C1)c1ccccc1 (centres unmarked) [Example 44, 4-Benzyl-1-((4-hydroxy-3,3-dimethyl-1-(3-phenylbutanoyl)piperidin-4-yl)methyl)pyrrolidin-2-one] | 50 to 250

Next, values leading:

Row | IC50 [µM] | Structure (SMILES)
4 | 0.5 to 5 | O=C1COCCN1CC1(O)CCN(C(=O)N2CCOC[C@H]2c2ccccc2)CC12CCCC2 (stereo partly drawn) [Example 117, 4-((10-Hydroxy-7-((R)-3-phenylmorpholine-4-carbonyl)-7-azaspiro[4.5]decan-10-yl)methyl)morpholin-3-one]
5 | 0.5 to 5 | C[C@H](CC1CCCCC1)C(=O)N1CC[C@@](O)(Cn2cc(N=S(C)(C)=O)c(-c3ccccc3F)cc2=O)C(C)(C)C1 [Example 66, 1-(((S)-1-((R)-3-Cyclohexyl-2-methylpropanoyl)-4-hydroxy-3,3-dimethylpiperidin-4-yl)methyl)-5-((dimethyl(oxo)-λ^6-sulfaneylidene)amino)-4-(2-fluorophenyl)pyridin-2(1H)-one]
